# From patent publication US10035792B2, “Resorcinol derivative as HSP90 inhibitor” (priority 2015, dated 2018)
# Assays:
# HSP90α = HSP90α (Homo sapiens (Human), UniProt P07900); experiment: Fluorescence polarization (FP) HSP90-alpha target binding assay; conditions: fluorescence polarization; read-out: Target binding ability HSP90α FP IC50
# From the text: In the present invention, the method of fluorescence polarization (FP) was used to establish the screening platform for HSP90-alpha inhibitors. The principle based on is to calculate fluorescence polarization values in horizontal and vertical directions by detecting molecular weight changes before and after interaction of fluorescent labeled small molecules with other molecules, in use for correlation analysis. If binding equilibria between the fluorescent labeled small molecule and the macromolecule is established, it moves slowly when excited, and the fluorescence polarization values measured will increase. If the fluorescent labeled small molecule binding to the macromolecule is replaced with other ligands, its rotational or inversional speed in free state will become faster, the emitted light would be depolarized with respect to the exciting light plane, and thus the polarized light value measured will decrease, so as to calculate the polarization value of the sample (the unit of polarization value is mP).
# The fluorescent labeled small molecule used in the present invention was VER-00051001 (synthesized by reference to the synthetic method described in JMC, 2008, 51, 196-218). The reaction was carried out in a 384-well black plate, using the reaction hydrophobic protein HFB buffer: 100 mM Tris.Cl pH 7.4, 20 mM KCl, 6 mM MgCl2, 5 μg/mL BSA, 25 nM full-length Hsp90U, 10 nM VER-51001. The volume of the reaction system was […], containing 5 nM GM-BODIPY (geldanamycin), 30 nM HSP90 and the test small molecular compound or DMSO (dimethyl sulfoxide), wherein the DMSO content was 2% o. Additional two group wells were established, wherein the wells only added with HFB buffer were used as blank controls, and the wells further added with 5 nM GM-BODIPY were used as negative controls. The reaction was carried out at 4° C. for 12-16 hours. The mP value was measured by Biotek microplate reader at 485 nm of excitation wavelength and 535 nm of emission wavelength. The inhibition rate was calculated using the following equation: (Compound-free mP−Compound mP)/(Compound-free mP−negative control mP)×100%
# [1] = test system: human lung cancer cell line A549; experiment: Tumor cell growth inhibition, SRB staining, A549; assay type: cell-based; conditions: A549, 72 h
# Method: The growth inhibition assay of tumor cells was detected by sulforhodamine B (SRB) staining method. The specific steps were as follows: inoculating human colon cancer cell line HCT116 and human lung cancer cell line A549 (purchased from American Type Culture Collection, ATCC) at the logarithmic growth phase into a 96-well micro culture plate at an appropriate concentration of 4000 cells/well, 100 μL for each well; after culturing overnight, adding with the compound at different concentrations (100, 10, 1, 0.1, 0.01 μM) to react for 72 h, wherein triplicate wells were set up for each concentration, and solvent control wells with the corresponding concentration and zero wells without cells were also set up. After the completion of the reaction, the culture medium was removed from the adherent cells, the later was added with 10% (w/v) trichloroacetic acid (100 μL/well) at 4° C. to fix for 1 h, and then washed five times with distilled water. After drying at room temperature, 100 μL of SRB solution (4 mg/mL, dissolved in 1% glacial acetic acid) was added into each well, followed by incubation and staining for 15 min at room temperature. The uncombined SRB was removed by washing five times with 1% glacial acetic acid. After drying at room temperature, 100 μL of 10 mM Tris solution was added into each well, and the optical density (OD) at 515 nm was measured by a […] microplate reader. The inhibition rate of the drug to tumor cell growth was calculated according to the following equation: Inhibition rate (%)=(OD of control well-OD of drug well)/OD of control well×100%. The experiment was repeated twice.
Structure (SMILES),IC50 (HSP90α),EC50 [1]
"CCNC(=O)c1noc(-c2cc(C(C)C)c(O)cc2O)c1-c1ccc2c(c1)CCN(CC)C2 [Example 49, 5-(2,4-dihydroxyl-5-isopropylphenyl)-N-ethyl-4-(2-ethyl-1,2,3,4-tetrahydroisoquinolin-6-yl)isoxazole-3-carboxamide]",< 20 nM,20 to 100 nM
"CCCN1CCc2cc(-c3c(C(=O)NCC)noc3-c3cc(C(C)C)c(O)cc3O)ccc2C1 [Example 50, 5-(2,4-dihydroxyl-5-isopropylphenyl)-N-ethyl-4-(2-propyl-1,2,3,4-tetrahydroisoquinolin-6-yl)isoxazole-3-carboxamide]",20 to 100 nM,< 20 nM
"CCNC(=O)c1noc(-c2cc(C(C)C)c(O)cc2O)c1-c1ccc2c(c1)CCN(C(C)C)C2 [Example 51, 5-(2,4-dihydroxyl-5-isopropylphenyl)-N-ethyl-4-(2-isopropyl-1,2,3,4-tetrahydroisoquinolin-6-yl)isoxazole-3-carboxamide]",20 to 100 nM,20 to 100 nM
"CCNC(=O)c1noc(-c2cc(C(C)C)c(O)cc2O)c1-c1ccc2c(c1)CCN(CC(C)C)C2 [Example 52, 5-(2,4-dihydroxyl-5-isopropylphenyl)-N-ethyl-4-(2-isobutyl-1,2,3,4-tetrahydroisoquinolin-6-yl)isoxazole-3-carboxamide]",20 to 100 nM,20 to 100 nM
"CCNC(=O)c1noc(-c2cc(C(C)C)c(O)cc2O)c1-c1ccc2c(c1)CCN(CCNC(C)=O)C2 [Example 53, 4-(2-(2-acetylaminoethyl)-1,2,3,4-tetrahydroisoquinolin-6-yl)-5-(2,4-dihydroxyl-5-isopropylphenyl)-N-ethylisoxazole-3-carboxamide]",20 to 100 nM,> 100 nM
CCNC(=O)c1noc(-c2cc(C(C)C)c(O)cc2O)c1-c1ccc2c(c1)CCN(CCCNC(C)=O)C2 [Example 54],20 to 100 nM,> 100 nM
"CCNC(=O)c1noc(-c2cc(C(C)C)c(O)cc2O)c1-c1ccc2c(c1)CCN(CC(=O)N(C)C)C2 [Example 55, 5-(2,4-dihydroxyl-5-isopropylphenyl)-4-(2-(2-(dimethylamino)-2-oxoethyl)-1,2,3,4-tetrahydroisoquinolin-6-yl)-N-ethylisoxazole-3-carboxamide]",20 to 100 nM,> 100 nM
CCNC(=O)c1noc(-c2cc(C(C)C)c(O)cc2O)c1-c1ccc2c(c1)CCN(CCC(=O)N(C)C)C2 [Example 56],20 to 100 nM,> 100 nM
"CCNC(=O)c1noc(-c2cc(C(C)C)c(O)cc2O)c1-c1ccc2c(c1)CCN(C(=O)CCN(C)C)C2 [Example 57, 5-(2,4-dihydroxyl-5-isopropylphenyl)-4-(2-(3-(dimethylamino)propionyl)-1,2,3,4-tetrahydroisoquinolin-6-yl)-N-ethylisoxazole-3-carboxamide]",20 to 100 nM,> 100 nM
"CCNC(=O)c1noc(-c2cc(C(C)C)c(O)cc2O)c1-c1ccc2c(c1)CCN(C(=O)CCN1CCOCC1)C2 [Example 58, 5-(2,4-dihydroxyl-5-isopropylphenyl)-N-ethyl-4-(2-(3-morpholino-4-yl-propionyl)-1,2,3,4-tetrahydroisoquinolin-6-yl)isoxazole-3-carboxamide]",20 to 100 nM,> 100 nM
"CCNC(=O)c1noc(-c2cc(C(C)C)c(O)cc2O)c1-c1ccc2c(c1)CCN(C(=O)CN(C)C)C2 [Example 59, 5-(2,4-dihydroxyl-5-isopropylphenyl)-4-(2-(2-(dimethylamino)acetyl)-1,2,3,4-tetrahydroisoquinolin-6-yl)-N-ethylisoxazole-3-carboxamide]",20 to 100 nM,> 100 nM
"CCNC(=O)c1noc(-c2cc(C(C)C)c(O)cc2O)c1-c1ccc2c(c1)CCN(C(=O)CN1CCOCC1)C2 [Example 60, 5-(2,4-dihydroxyl-5-isopropylphenyl)-N-ethyl-4-(2-(2-morpholino-4-yl-acetyl)-1,2,3,4-tetrahydroisoquinolin-6-yl)isoxazole-3-carboxamide]",20 to 100 nM,> 100 nM
"CC(C)c1cc(-c2noc(C(N)=O)c2-c2ccc3c(c2)CCN(C)C3)c(O)cc1O [Example 61, 3-(2,4-dihydroxyl-5-isopropylphenyl)-4-(2-methyl-1,2,3,4-tetrahydroisoquinolin-6-yl)isoxazol-5-carboxamide]",< 20 nM,< 20 nM
"CNC(=O)c1onc(-c2cc(C(C)C)c(O)cc2O)c1-c1ccc2c(c1)CCN(C)C2 [Example 62, 3-(2,4-dihydroxyl-5-isopropylphenyl)-N-methyl-4-(2-methyl-1,2,3,4-tetrahydroisoquinolin-6-yl)isoxazole-5-carboxamide]",< 20 nM,< 20 nM
"CC(C)NC(=O)c1onc(-c2cc(C(C)C)c(O)cc2O)c1-c1ccc2c(c1)CCN(C)C2 [Example 63, 3-(2,4-dihydroxyl-5-isopropylphenyl)-N-isopropyl-4-(2-methyl-1,2,3,4-tetrahydroisoquinolin-6-yl)isoxazole-5-carboxamide]",< 20 nM,< 20 nM
"CC(C)c1cc(-c2noc(C(=O)NCCO)c2-c2ccc3c(c2)CCN(C)C3)c(O)cc1O [Example 64, 3-(2,4-dihydroxyl-5-isopropylphenyl)-N-(2-hydroxylethyl)-4-(2-methyl-1,2,3,4-tetrahydroisoquinolin-6-yl)isoxazole-5-carboxamide]",< 20 nM,< 20 nM
"CC(C)c1cc(-c2noc(C(=O)NCCF)c2-c2ccc3c(c2)CCN(C)C3)c(O)cc1O [Example 65, 3-(2,4-dihydroxyl-5-isopropylphenyl)-N-(2-fluoroethyl)-4-(2-methyl-1,2,3,4-tetrahydroisoquinolin-6-yl)isoxazole-5-carboxamide]",< 20 nM,< 20 nM
"CC(C)c1cc(-c2noc(C(=O)NCCCO)c2-c2ccc3c(c2)CCN(C)C3)c(O)cc1O [Example 66, 3-(2,4-dihydroxyl-5-isopropylphenyl)-N-(3-hydroxylpropyl)-4-(2-methyl-1,2,3,4-tetrahydroisoquinolin-6-yl)isoxazole-5-carboxamide]",< 20 nM,< 20 nM
"CCNC(=O)c1onc(-c2cc(C(C)C)c(O)cc2O)c1-c1ccc2c(c1)CCN(C(C)C)C2 [Example 68, 3-(2,4-dihydroxyl-5-isopropylphenyl)-N-ethyl-4-(2-isopropyl-1,2,3,4-tetrahydroisoquinolin-6-yl)isoxazole-5-carboxamide]",< 20 nM,< 20 nM
CCNC(=O)c1onc(-c2cc(C(C)C)c(O)cc2O)c1-c1ccc2c(c1)CCN(CCO)C2 [Example 69],< 20 nM,< 20 nM
CCNC(=O)c1onc(-c2cc(C(C)C)c(O)cc2O)c1-c1ccc2c(c1)CCN(CCOC)C2 [Example 70],< 20 nM,20 to 100 nM
CCNC(=O)c1onc(-c2cc(C(C)C)c(O)cc2O)c1-c1ccc2c(c1)CCN(CCF)C2 [Example 71],< 20 nM,< 20 nM
